Read-outs that look alike come from different tables or passages of the source.
Legend:
[1] = test system: acne; conditions: Farrell 1980; Hammerstein 1975; Lyons 1982; Weissman 1985; cited from earlier work
[2] = test system: rhino mouse utricles; assay: Rhino mouse utricle assay, oral dosing; format: in vivo; conditions: 3 weeks, vs solvent-treated control
Description: (§1) Male and female rhino mice were weighed prior to the start of an experiment. For topical studies, test compounds are dissolved in 100% acetone and 100 μl applied to the dorsa of the mice five times a week, once daily, for three weeks. For oral studies, test compounds were dissolved in 100% propylene glycol and 100 μl given by oral intubation 5 times a week, once daily, for three weeks. Final body weights were recorded at the time of sacrifice, done by CO2 inhalation. A flap of skin from the dorsa was cut out and processed by histological methods to produce a whole mount of the tissue. Utricle size was measured by image analysis using either the Leitz TAS Plus system or the Ultimage system on a modified MACINTOSH computer. Data is given as the % change from solvent-treated control tissue (Tables 3 and 4).

[3] = test system: hamster ear sebaceous glands; assay: Hamster ear sebaceous gland assay, oral dosing; format: in vivo, Golden Syrian hamster (male); conditions: 4 weeks
Description: Charles River Golden Syrian male hamsters, weighing between 150 to 160 grams, were housed for one month after receipt before dosing with compounds. […] Fresh solutions were made up weekly.
Hamsters were given 0.2 ml of drug solution via oral intubation. Animals were dosed daily for five days, rested for two days, and dosed again for five days until 20 doses were given. Hamsters were weighed at the beginning and end of the dosing regimen.
Hamsters were sacrificed by CO2 inhalation, and the ears removed for histological evaluation. One ear was fixed with 10% buffered formalin, processed for paraffin embedding, sectioned, and stained with hematoxylin and eosin (H&E). The area of sebaceous glands in cross-sections of hamster ears was examined by image analysis using a Leitz TAS Plus system.
Data is given as the average area of 30-40 sebaceous glands as percent of the control (solvent-treated) sections.

[4] = Toxicity observed in the acne models of Examples 2-4; format: in vivo
Description: The compound of the invention was tested as described in Examples 2-4, below, in several acne models.

[5] = test system: rhino mouse utricles; assay: Rhino mouse utricle assay, topical dosing; format: in vivo; conditions: 3 weeks, vs solvent-treated control
Description: as §1

[6] = test system: human sebaceous cells (sebocytes); assay: Inhibition of human sebocyte proliferation in vitro; format: cell-based; conditions: read-out: ED50, inhibition of human sebocyte proliferation in vitro
Description: The cells are cultured in Iscove's medium containing 10% fetal calf serum and 4 μg/ml dexamethasone.
Cells are plated in medium without the test compound and then given test compound in fresh medium 24-48 hours after the initial plating. The cultures are given fresh medium containing the test compound, every 48 hours. On the day of harvesting, the cultures are rinsed with 0.03% EDTA in PBS to remove only the 3T3 fibroblasts, followed by incubation in 0.05% trypsin/0.03% EDTA. The cells are suspended, mixed vigorously to prepare a single cell suspension and counted in a hemocytometer.
All test compounds are handled in the following manner. Stock solutions are made up as 10^-2 M solutions in DMSO and stored at -20° C. in the dark. Solutions are never used after one month of storage. During experimental use, the solutions, which have been aliquoted, are brought to room temperature and used by diluting directly into complete medium to the appropriate concentration.

[7] = test system: human sebaceous glands; conditions: Landthaler et al., 1980; cited from earlier work
[8] = test system: Syrian hamster ear sebaceous gland; conditions: Plewig et al., 1981; cited from earlier work
[9] = in vivo; cited from earlier work
[10] = oral 0.25 mg/kg in propylene glycol
[11] = oral 1.25 mg/kg in propylene glycol
[12] = oral 5 mg/kg in propylene glycol
[13] = Experiment 2, oral 0.5 mg/kg, vs solvent-treated control
[14] = Experiment 2, oral 2.5 mg/kg, vs solvent-treated control
[15] = Experiment 2, oral 5 mg/kg, vs solvent-treated control
[16] = Experiment 2, oral 10 mg/kg, vs solvent-treated control
[17] = Experiment 1, topical 0.01 % solution in acetone
[18] = Experiment 1, topical 0.1 % solution in acetone
[19] = Experiment 2, topical 0.001 % solution in acetone
[20] = Experiment 2, topical 0.01 % solution in acetone
[21] = Experiment 2, topical 0.1 % solution in acetone

Row | SMILES | effect on sebum production [1] | effect on severity of acne [1] | % Decrease, rhino mouse utricle size [2, 10] [%] | % Decrease, rhino mouse utricle size [2, 11] [%] | % Decrease, rhino mouse utricle size [2, 12] [%] | % Decrease, hamster ear sebaceous gland size [3, 13] [%] | % Decrease, hamster ear sebaceous gland size [3, 14] [%] | % Decrease, hamster ear sebaceous gland size [3, 15] [%] | % Decrease, hamster ear sebaceous gland size [3, 16] [%] | % Decrease, rhino mouse utricle size [5, 17] [%] | % Decrease, rhino mouse utricle size [5, 18] [%] | % Decrease, rhino mouse utricle size [5, 19] [%] | % Decrease, rhino mouse utricle size [5, 20] [%] | % Decrease, rhino mouse utricle size [5, 21] [%] | other results
1 | CC(=O)O[C@]1(C(C)=O)CC[C@H]2[C@@H]3C=C(Cl)C4=CC(=O)[C@@H]5C[C@@H]5[C@]4(C)[C@H]3CC[C@@]21C [cyproterone acetate] | reduce sebum production | reduce the severity of acne | – | – | – | – | – | – | – | – | – | – | – | – | –
2 | CCCCCCCCCOc1c(C)cc(C)cc1/C=C/C(C)=C/C=C/C(C)=C/C(=O)O [Compound I, (all-E)-3,7-dimethyl-9-[3,5-dimethyl-2-(nonyloxy)-phenyl]-2,4,6,8-nonatetraenoic acid] | – | – | -23 | -23 | -28 | -11 | -18 | -24 | -33 | -10 | -42 | -1 | -11 | -30 | % Decrease, hamster ear sebaceous gland size ([3]; Experiment 1, oral 0.5 mg/kg, vs solvent-treated control): -19%; % Decrease, hamster ear sebaceous gland size ([3]; Experiment 1, oral 1.5 mg/kg, vs solvent-treated control): -27%; % Decrease, hamster ear sebaceous gland size ([3]; Experiment 1, oral 5 mg/kg, vs solvent-treated control): -33%; % Decrease, hamster ear sebaceous gland size ([3]; Experiment 3a, vehicle = Propylene Glycol, oral 0.5 mg/kg): -19%; % Decrease, hamster ear sebaceous gland size ([3]; Experiment 3a, vehicle = Propylene Glycol, oral 1.6 mg/kg): -27%; % Decrease, hamster ear sebaceous gland size ([3]; Experiment 3a, vehicle = Propylene Glycol, oral 6 mg/kg): -33%; % Decrease, hamster ear sebaceous gland size ([3]; Experiment 3b, vehicle = Labrafil, oral 0.6 mg/kg): -18%; % Decrease, hamster ear sebaceous gland size ([3]; Experiment 3b, vehicle = Labrafil, oral 1.6 mg/kg): -26%; % Decrease, hamster ear sebaceous gland size ([3]; Experiment 3b, vehicle = Labrafil, oral 5 mg/kg): -26%; % Decrease, hamster ear sebaceous gland size ([3]; Experiment 3c, vehicle = Tween 80, oral 0.5 mg/kg): -13%; % Decrease, hamster ear sebaceous gland size ([3]; Experiment 3c, vehicle = Tween 80, oral 1.4 mg/kg): -13%; % Decrease, hamster ear sebaceous gland size ([3]; Experiment 3c, vehicle = Tween 80, oral 6 mg/kg): -22%; toxicity at all doses tested [4]: non-toxic at all doses tested; IC50 ([6]; amount necessary to inhibit proliferation by 50% vs diluent-treated control, tested at 10^-6 to 10^-9 M): 10 nM
3 | CC(=O)S[C@@H]1CC2=CC(=O)CC[C@]2(C)[C@H]2CC[C@@]3(C)[C@@H](CC[C@@]34CCC(=O)O4)[C@H]12 [spironolactone] | reduce sebum production | reduce the severity of acne | – | – | – | – | – | – | – | – | – | – | – | – | –
4 | CC1=C(/C=C/C(C)=C/C=C/C(C)=C\C(=O)O)C(C)(C)CCC1 [13-cis retinoic acid, reference compound] | reduce sebum production | reduce the severity of acne | -19 | -39 | -47 | -13 | -24 | -34 | -30 | -44 | -55 | -27 | -58 | -61 | reduction of the size of human sebaceous glands [7]: up to 90%; sensitivity of Syrian hamster ear sebaceous gland [8]: sensitive; IC50 [6]: 50 nM; side effects [9]: deleterious side effects such as hypervitaminosis A

Reference: patent US5369126A, “Nonatetraenoic acid derivative for use in treating acne” (Hoffmann-La Roche Inc., priority 1993, dated 1994)
